According to patent US20120053112A1, “METHODS AND COMPOSITIONS RELATED TO THE REGULATION OF GOBLET CELL DIFFERENTIATION, MUCUS PRODUCTION AND MUCUS SECRETION” (CHILDREN'S HOSPITAL MEDICAL CENTER, priority 2009, published 2012):
Where “and” joins values, the source holds several entries; their conditions need not be identical. Equal entries are not always repeated. Entries after “also recorded” stand apart in the source; their conditions may differ.

Legend:
[1] = system: MUC5AC mRNA in Flag-SPDEF-GFP HBEC cells; test: Effect of inhibitors on MUC5AC expression in SPDEF-expressing HBEC cells on air-liquid interface (real-time PCR); assay type: cell-based, human; conditions: for Inhibitor concentrations at which MUC5AC mRNA was not detected: SPDEF-expressing HBEC cells; for Concentration of dose curve with no detection of MUC5AC mRNA (starred): Flag-SPDEF-GFP HBEC on ALI, inhibitor added upon induction of ALI, RNA after 48 hours, TAQMAN real-time PCR, FIG. 19
Experimental: Inhibitors were added to media upon induction of ALI and RNA was isolated after 48 hours. (A) p38 MAPK inhibitor (SB239063) dose curve: 0.5, 1, 2.5, 5*, 10* μM. (B) PI3K inhibitor (LY294002) dose curve: 0.5, 1, 2.5, 5*, 10*, 25* μM. (C) mTor inhibitor (Rapamycin) dose curve: 1, 5, 10, 25, 50*, 100* nM. *=No detection of MUC5AC mRNA at these concentrations as determined by TAQMAN® real-time PCR (Applied Biosystems, Foster City, Calif.).
Expression levels of MUC5AC were measured in SPDEF-expressing HBEC cells treated with the p38 MAPK inhibitor SB239063. MUC5AC mRNA was quantitated by QRT-PCR. MUC5AC mRNA was not detected at inhibitor concentrations ≧5 uM.
Expression levels of MUC5AC in SPDEF-expressing HBEC cells treated with rapamycin. MUC5AC mRNA was not detected at inhibitor concentrations ≧50 nM.
Expression levels of MUC5AC in SPDEF-expressing HBEC cells treated with the PI3K inhibitor LY294002. MUC5AC mRNA was not detected at inhibitor concentrations ≧[…].
Using Agr2 as a readout of SPDEF, the effects of p38 MAPK inhibitor SB239063, PI3K inhibitor LY294002, and mTor inhibitor rapamycin in human bronchiolar epithelial cells (HBEC) were investigated. In vitro preparations were maintained at the ALI for 48 hours prior to taking Agr2 measurements.
To test for small molecule inhibitors, HBEC cells expressing lentiviral SPDEF constructs were treated with the p38 MAP kinase inhibitor, SB239063. MUC5AC mRNA was quantitated by QRT-PCR. SPDEF-dependent MUC5AC mRNA was inhibited by the p38 MAP kinase inhibitor (FIG. 22).

[2] = system: mouse Agr2 1.6 Kb promoter; conditions: U0126 at 20 μM and 10 μM; 36 hour transfection, aSTEpC; DMSO vehicle control
Experimental: Thirty-six hour transfection of adult sheep tracheal epithelial cells (aSTEpC) with Agr2-luciferase and expression vectors encoding SPDEF and Foxa3. MAPK inhibitor (U0126) was added at a concentration of 20 μM and 10 μM (DMSO as vehicle control).
Thirty-six hour transfection of adult sheep tracheal epithelial cells (aSTEpCs) with Agr2-luciferase and expression vectors encoding SPDEF and Foxa3 were performed. A MAPK inhibitor (U0126) was added at a concentration of 20 μM and 10 μM (using DMSO as a vehicle control). MAPK inhibitor (U0126) effects on the activity of the mouse Agr2 1.6 Kb promoter were analyzed.
Promoter reporter constructs were co-transfected into primary sheep tracheal epithelial cells (aSTEpC) with CMV-13-Gal plasmid (Clontech, Palo Alto, Calif.) and/or transcription factor expression plasmid using Lipofectamine 2000 (Invitrogen, Carlsbad, Calif.) as previously described^6. Growth media was changed into a differentiation media (MTEC/Nu, mouse tracheal epithelial cells culture media, 2% Nu serum)^39 after transfection. Cell lysates were collected for luciferase activity assay 24 hours after transfection. All transfection assays were performed with primary sheep adult tracheal epithelial cells at passage 3 or 4. Relative promoter activities were normalized to transfection efficiency assayed by β-galactosidase activity and shown as mean±S.D.

[3] = system: SPDEF in primary mouse tracheal epithelial cells; test: IL-13 induction of SPDEF in primary mouse tracheal epithelial cells at air-liquid interface (immunohistochemistry); assay type: cell-based; conditions: IL-13 10 ng/ml; ALI culture, 3 and 7 days; FIG. 14
Experimental: Immunohistochemical staining of SPDEF in primary mouse tracheal epithelial cells cultured under an air-liquid interface (ALI) condition in the presence or absence of IL-13 (10 ng/ml). Expression of SPDEF was detected after 3 days (upper panel) and 7 days (lower panel) after ALI culture. Scale bar: 50 μm.
The air-liquid interface culture of mouse tracheal epithelial cells was performed as previously described^39. The mouse IL-13 used for in vitro culture was purchased from R&D System (Minneapolis, Minn.). The air-liquid interface culture of the HEBCs was similar to procedures previously described^40.

With `O=c1cc(N2CCOCC2)oc2c(-c3ccccc3)cccc12` [LY294002] the “Inhibitor concentrations at which MUC5AC mRNA was not detected” value ([1]; QRT-PCR, FIGS. 22, 25) was no less than 10 µM.

In the case of `CO[C@H]1C[C@@H]2CC[C@@H](C)[C@@](O)(O2)C(=O)C(=O)N2CCCC[C@H]2C(=O)O[C@H]([C@H](C)C[C@@H]2CC[C@@H](O)[C@H](OC)C2)CC(=O)[C@H](C)/C=C(\C)[C@@H](O)[C@@H](OC)C(=O)[C@H](C)C[C@H](C)/C=C/C=C/C=C/1C` [Rapamycin], the “Concentration of dose curve with no detection of MUC5AC mRNA (starred)” value [1] is reported as 50 nM and 100 nM and the “Inhibitor concentrations at which MUC5AC mRNA was not detected” value ([1]; FIG. 24) is reported as no less than 0.05 µM.

In the case of `COc1nccc(-c2c(-c3ccc(F)cc3)ncn2C2CCC(O)CC2)n1` (centres unmarked) [SB239063], the “Concentration of dose curve with no detection of MUC5AC mRNA (starred)” value [1] is reported as 5000 nM and 10000 nM, the “Effect on SPDEF-mediated MUC5AC (Muc5A/C) activation / mRNA” value ([1]; HBEC in vitro, result in words) is reported as “highly active; also recorded: inhibited” and the “Inhibitor concentrations at which MUC5AC mRNA was not detected” value ([1]; QRT-PCR, FIGS. 22, 25) is reported as no less than 5 µM.

`N#CC(=C(/N)Sc1ccccc1N)/C(C#N)=C(\N)Sc1ccccc1N` [U0126] was tested, and the “Effect on activation of SPDEF or Agr2 (Agr2 promoter luciferase activity)” value [2] was “inhibited”.

B1: IL-13: mouse IL-13 cytokine purchased from R&D System, used for in vitro culture (protein, UniProt P20109 19-131, looked up)
Interleukin-13: APGPVPRSVSLPLTLKELIEELSNITQDQTPLCNGSMVWSVDLAAGGFCVALDSLTNISNCNAIYRTQRILHGLCNRKAPTTVSSLPDTKIEVAHFITKLLSYTKQLFRHGPF
For B1, the SPDEF expression [3] was “dramatically induced”.
